Assay results taken from paper PMC6331912, “7-Methoxytacrine-p-Anisidine Hybrids as Novel Dual Binding Site Acetylcholinesterase Inhibitors for Alzheimer’s Disease Treatment” (Molecules, 2015).

Assays:
Format in all cases: biochemical
[1] = target: T1, human recombinant acetylcholinesterase (hAChE) (Homo sapiens, UniProt P22303); experiment: biochemical; conditions: for IC50: mean of at least three experiments, substrate ATCh, pH 7.4, 37 °C, read-out: hAChE IC50 ± SEM; for Selectivity for hAChE: ratio hBChE IC50/hAChE IC50; for fold weaker inhibitor of hAChE compared to tacrine: ratio of IC50 to tacrine
T1 construct: purchased Sigma-Aldrich (Prague, Czech Republic)
T1 sequence (P22303 32-614): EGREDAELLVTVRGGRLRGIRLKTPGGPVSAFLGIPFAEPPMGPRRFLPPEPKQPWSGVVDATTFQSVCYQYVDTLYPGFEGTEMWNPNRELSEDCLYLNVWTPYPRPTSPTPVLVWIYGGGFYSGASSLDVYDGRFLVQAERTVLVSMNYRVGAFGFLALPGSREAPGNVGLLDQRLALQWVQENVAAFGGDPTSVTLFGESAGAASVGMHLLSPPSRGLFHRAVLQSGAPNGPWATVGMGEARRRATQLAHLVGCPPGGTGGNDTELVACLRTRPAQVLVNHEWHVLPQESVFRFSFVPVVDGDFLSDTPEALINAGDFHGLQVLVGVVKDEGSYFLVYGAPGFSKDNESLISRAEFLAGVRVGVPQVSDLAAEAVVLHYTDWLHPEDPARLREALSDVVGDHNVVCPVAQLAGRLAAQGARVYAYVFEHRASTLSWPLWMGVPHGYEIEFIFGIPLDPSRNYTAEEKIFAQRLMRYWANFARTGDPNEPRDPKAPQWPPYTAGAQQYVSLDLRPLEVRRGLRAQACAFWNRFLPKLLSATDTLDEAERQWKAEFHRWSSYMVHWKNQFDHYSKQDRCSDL

[2] = target: human plasma butyrylcholinesterase (hBChE) (Homo sapiens, UniProt P06276); experiment: biochemical; conditions: for IC50: mean of at least three experiments, substrate BTCh, pH 7.4, 37 °C, read-out: hBChE IC50 ± SEM; for fold weaker inhibitor of hBChE related to tacrine: ratio of IC50 to tacrine
human plasma butyrylcholinesterase (hBChE), sequence (P06276 29-602): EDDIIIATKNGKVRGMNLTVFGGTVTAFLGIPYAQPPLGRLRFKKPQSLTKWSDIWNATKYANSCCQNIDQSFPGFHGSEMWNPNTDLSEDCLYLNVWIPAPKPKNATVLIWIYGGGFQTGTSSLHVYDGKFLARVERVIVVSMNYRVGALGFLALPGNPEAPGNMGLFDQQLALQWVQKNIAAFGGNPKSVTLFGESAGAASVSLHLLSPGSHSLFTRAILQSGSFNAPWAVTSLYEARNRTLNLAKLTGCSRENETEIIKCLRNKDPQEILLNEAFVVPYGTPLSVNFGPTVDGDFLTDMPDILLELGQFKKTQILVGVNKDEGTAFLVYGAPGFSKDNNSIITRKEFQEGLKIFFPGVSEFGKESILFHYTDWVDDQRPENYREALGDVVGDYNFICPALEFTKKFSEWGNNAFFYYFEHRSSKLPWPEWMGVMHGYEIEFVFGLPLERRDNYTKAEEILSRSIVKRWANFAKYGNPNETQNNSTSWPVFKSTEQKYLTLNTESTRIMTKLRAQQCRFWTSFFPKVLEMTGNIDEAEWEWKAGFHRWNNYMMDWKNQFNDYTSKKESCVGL

[3] = target: T2, AChE (Homo sapiens, UniProt P22303); experiment: Kinetic study of AChE inhibition (Ellman's method, nonlinear regression, Lineweaver-Burk); conditions: for Ki: estimated by nonlinear regression analysis, substrate ATCh; for type of inhibition: p < 0.05, apparent Vmax decreased, Km unchanged with increasing inhibitor concentration
T2 construct: purchased Sigma-Aldrich (Prague, Czech Republic)
T2 sequence (P22303 32-614): as the sequence (P22303 32-614) above
Description: […]. We used a kinetic assay in order to obtain information about the mode of inhibition and binding site of the target compounds. The mechanism of inhibition was analyzed by recording substrate concentration—enzymatic reaction rate curves in the presence of different concentrations of compounds 15 and 19. Analysis confirmed a non-competitive type of inhibition (p < 0.05) for both compounds. With increasing concentration of inhibitor, apparent Vmax decreased and Km remained unchanged. […] […]. Such a pattern of inhibition is also characteristic for donepezil and it may indicate prevailing interactions of the enzyme with PAS [36]. PAS of AChE is associated with the ability to induce Aβ aggregation, thus, compounds interacting with this region may inhibit such a process and could have additional benefit for the treatment of AD [37].
Figure 3 Steady-state inhibition of AChE hydrolysis of acetylthiocholine (ATCh) by compounds 15 and 19. […]. Lines were derived from a weighted least-squares analysis of data.
The kinetic study of AChE inhibition was performed by using Ellman’s method (described above). The type of inhibition was elucidated from the nonlinear regression analysis. Results for each type model of inhibition (competitive, noncompetitive, uncompetitive and mixed) were compared with sum-of-squares F-test. […]. Linear regression was used for calculation of Lineweaver-Burk plots. All calculations were performed using the GraphPad Prism software.

COc1ccc(NC(=S)NCCNc2c3c(nc4ccc(OC)cc24)CCCC3)cc1.O=C(O)C(O)C(O)C(=O)O [compound 9, 3-{2-[(7-Methoxy-1,2,3,4-tetrahydroacridin-9-yl)amino]ethyl}-1-(4-methoxyphenyl)thiourea-2,3‑dihydroxy-succinate]
IC50 [1]: 43.6 ± 2.1 µM
Selectivity for hAChE [1]: 0.02
IC50 [2]: 1.03 ± 0.1 µM
fold weaker inhibitor of hBChE related to tacrine [2]: 12.9 fold

COc1ccc(NC(=S)NCCCNc2c3c(nc4ccc(OC)cc24)CCCC3)cc1.O=C(O)C(O)C(O)C(=O)O [compound 10, 3-{3-[(7-Methoxy-1,2,3,4-tetrahydroacridin-9-yl)amino]propyl}-1-(4-methoxyphenyl)thiourea-2,3‑dihydroxy-succinate]
IC50 [1]: 6.36 ± 0.5 µM
Selectivity for hAChE [1]: 1.37
IC50 [2]: 8.73 ± 0.1 µM

COc1ccc(NC(=S)NCCCCNc2c3c(nc4ccc(OC)cc24)CCCC3)cc1.O=C(O)C(O)C(O)C(=O)O [compound 11, 3-{4-[(7-Methoxy-1,2,3,4-tetrahydroacridin-9-yl)amino]butyl}-1-(4-methoxyphenyl)thiourea-2,3‑dihydroxy-succinate]
IC50 [1]: 32.8 ± 9.9 µM
Selectivity for hAChE [1]: 0.18
IC50 [2]: 6.04 ± 0.1 µM

COc1ccc(NC(=S)NCCCCCNc2c3c(nc4ccc(OC)cc24)CCCC3)cc1.O=C(O)C(O)C(O)C(=O)O [compound 12, 3-{5-[(7-Methoxy-1,2,3,4-tetrahydroacridin-9-yl)amino]pentyl}-1-(4-methoxyphenyl)thiourea-2,3‑dihydroxy-succinate]
IC50 [1]: 4.9 ± 0.3 µM
Selectivity for hAChE [1]: 2.71
IC50 [2]: 13.5 ± 0.7 µM

COc1ccc(NC(=S)NCCCCCCNc2c3c(nc4ccc(OC)cc24)CCCC3)cc1.O=C(O)C(O)C(O)C(=O)O [compound 13, 3-{6-[(7-Methoxy-1,2,3,4-tetrahydroacridin-9-yl)amino]hexyl}-1-(4-methoxyphenyl)thiourea-2,3‑dihydroxy-succinate]
IC50 [1]: 10.3 ± 1.3 µM
Selectivity for hAChE [1]: 0.90
IC50 [2]: 9.35 ± 0.1 µM

COc1ccc(NC(=S)NCCCCCCCNc2c3c(nc4ccc(OC)cc24)CCCC3)cc1.O=C(O)C(O)C(O)C(=O)O [compound 14, 3-{7-[(7-Methoxy-1,2,3,4-tetrahydroacridin-9-yl)amino]heptyl}-1-(4-methoxyphenyl)thiourea-2,3‑dihydroxy-succinate]
IC50 [1]: 3.96 ± 0.1 µM
Selectivity for hAChE [1]: 0.79
IC50 [2]: 3.13 ± 0.3 µM

COc1ccc(NC(=S)NCCCCCCCCNc2c3c(nc4ccc(OC)cc24)CCCC3)cc1.O=C(O)C(O)C(O)C(=O)O [compound 15, 3-{8-[(7-Methoxy-1,2,3,4-tetrahydroacridin-9-yl)amino]octyl}-1-(4-methoxyphenyl)thiourea-2,3‑dihydroxy-succinate]
IC50 [1]: 1.36 ± 0.4 µM
Selectivity for hAChE [1]: 7.53
fold weaker inhibitor of hAChE compared to tacrine [1]: 4.2 fold
IC50 [2]: 10.2 ± 4.7 µM
Ki [3]: 1.33 ± 0.125 µM
type of inhibition [3]: non-competitive

COc1ccc(NC(=O)NCCNc2c3c(nc4ccc(OC)cc24)CCCC3)cc1.O=C(O)C(O)C(O)C(=O)O [compound 16, 3-{2-[(7-Methoxy-1,2,3,4-tetrahydroacridin-9-yl)amino]ethyl}-1-(4-methoxyphenyl)urea-2,3‑dihydroxy-succinate]
IC50 [1]: 44.9 ± 1.4 µM
Selectivity for hAChE [1]: 0.27
IC50 [2]: 11.9 ± 2.3 µM

COc1ccc(NC(=O)NCCCNc2c3c(nc4ccc(OC)cc24)CCCC3)cc1.O=C(O)C(O)C(O)C(=O)O [compound 17, 3-{3-[(7-Methoxy-1,2,3,4-tetrahydroacridin-9-yl)amino]propyl}-1-(4-methoxyphenyl)urea-2,3‑dihydroxy-succinate]
IC50 [1]: 26.9 ± 5.9 µM
Selectivity for hAChE [1]: 0.59
IC50 [2]: 15.9 ± 4.1 µM

COc1ccc(NC(=O)NCCCCNc2c3c(nc4ccc(OC)cc24)CCCC3)cc1.O=C(O)C(O)C(O)C(=O)O [compound 18, 3-{4-[(7-Methoxy-1,2,3,4-tetrahydroacridin-9-yl)amino]butyl}-1-(4-methoxyphenyl)urea-2,3‑dihydroxy-succinate]
IC50 [1]: 13.8 ± 3.9 µM
Selectivity for hAChE [1]: 0.68
IC50 [2]: 9.34 ± 0.1 µM

COc1ccc(NC(=O)NCCCCCNc2c3c(nc4ccc(OC)cc24)CCCC3)cc1.O=C(O)C(O)C(O)C(=O)O [compound 19, 3-{5-[(7-Methoxy-1,2,3,4-tetrahydroacridin-9-yl)amino]pentyl}-1-(4-methoxyphenyl)urea-2,3‑dihydroxy-succinate]
IC50 [1]: 1.35 ± 0.3 µM
Selectivity for hAChE [1]: 8.07
fold weaker inhibitor of hAChE compared to tacrine [1]: 4.2 fold
IC50 [2]: 10.9 ± 1.6 µM
Ki [3]: 0.453 ± 0.0251 µM
type of inhibition [3]: non-competitive

COc1ccc(NC(=O)NCCCCCCNc2c3c(nc4ccc(OC)cc24)CCCC3)cc1.O=C(O)C(O)C(O)C(=O)O [compound 20, 3-{6-[(7-Methoxy-1,2,3,4-tetrahydroacridin-9-yl)amino]hexyl}-1-(4-methoxyphenyl)urea-2,3‑dihydroxy-succinate]
IC50 [1]: 4.56 ± 0.9 µM
Selectivity for hAChE [1]: 1.26
IC50 [2]: 5.75 ± 0.4 µM

COc1ccc(NC(=O)NCCCCCCCNc2c3c(nc4ccc(OC)cc24)CCCC3)cc1.O=C(O)C(O)C(O)C(=O)O [compound 21, 3-{7-[(7-Methoxy-1,2,3,4-tetrahydroacridin-9-yl)amino]heptyl}-1-(4-methoxyphenyl)urea-2,3‑dihydroxy-succinate]
IC50 [1]: 1.72 ± 0.3 µM
Selectivity for hAChE [1]: 0.98
IC50 [2]: 1.69 ± 0.2 µM

COc1ccc(NC(=O)NCCCCCCCCNc2c3c(nc4ccc(OC)cc24)CCCC3)cc1.O=C(O)C(O)C(O)C(=O)O [compound 22, 3-{8-[(7-Methoxy-1,2,3,4-tetrahydroacridin-9-yl)amino]octyl}-1-(4-methoxyphenyl)urea-2,3‑dihydroxy-succinate]
IC50 [1]: 2.14 ± 0.6 µM
Selectivity for hAChE [1]: 0.63
IC50 [2]: 1.34 ± 0.2 µM
fold weaker inhibitor of hBChE related to tacrine [2]: 16.8 fold
